Results from paper PMC8948292, “Combining PEGylated mito-atovaquone with MCT and Krebs cycle redox inhibitors as a potential strategy to abrogate tumor cell proliferation” (Scientific Reports, 2022).

What was measured:
U87MG cells = assay: Cell proliferation (cell confluence), IncuCyte Live-Cell Analysis System; format: cell-based, human; conditions: Mito-PEG5-ATO 0.15 µM, AZD-3965 600 µM
Method: (§1) The following cell lines were obtained from the American Type Culture Collection (Manassas, VA), where they were regularly authenticated: MiaPaCa-2 (ATCC Cat# CRL-1420, human pancreatic cancer cells), U87MG (ATCC Cat# HTB-14, human brain cancer cells), A549 (ATCC Cat# CCL-185, lung cancer cells), and HCT-116 (ATCC Cat# CCL-247, colon cancer cells). All cell lines were grown at 37 °C in 5% carbon dioxide. MiaPaCa-2 cells were maintained in Dulbecco's Modified Eagle Medium (Thermo Fisher Scientific, Waltham, MA; Cat# 11965) supplemented with 10% fetal bovine serum. U87MG, A549, and HCT-116 cells were maintained in RPMI 1640 medium (Thermo Fisher Scientific, Cat# 11875), supplemented with 10% fetal bovine serum. All cells were stored in liquid nitrogen and used within 20 passages after thawing.
The IncuCyte Live-Cell Analysis System was used to monitor cell proliferation[3],[33],[67]. As shown in previous publications[3],[67], this imaging system is probe-free and noninvasive, and enables continuous monitoring of cell confluence over several days. […] Cells were then treated with Mito-PEG-ATO analogs, and the cell confluency was recorded over several days in the IncuCyte Live-Cell Analysis System.
Figure S4. […] (a) Effects of Mito-PEG-ATO analogs on the proliferation of U87MG cells were monitored in the IncuCyte Live-Cell Analysis System. […]

MiaPaCa-2 cells [1] = assay: Intracellular ATP, luciferase-based assay; format: cell-based, human
Method: After seeding cells overnight at 2 × 10^4 per well in 96-well plates, cells were treated for 24 h. Intracellular ATP levels were determined in cell lysates using a luciferase-based assay per the manufacturer’s instructions (cat# FLAA, Sigma Aldrich, St. Louis, MO). In brief, the assay starts by rapidly adding an ATP assay mix solution (luciferase and luciferin solution, cat# FLAAM) to cell lysates. This is swirled briskly to mix, and the amount of light produced is immediately measured with a luminometer. The results were normalized to the total protein level measured in each well, as determined by the Bradford method (Bio-Rad Laboratories, Hercules, CA).

A549 cells = assay: Cell proliferation (cell confluence), IncuCyte Live-Cell Analysis System; format: cell-based; conditions: Homo sapiens, A549, read-out: IC50, inhibition of A549 cell proliferation
Method: as §1
(§2) The IncuCyte Live-Cell Analysis System was used to monitor cell proliferation[3],[33],[67]. As shown in previous publications[3],[67], this imaging system is probe-free and noninvasive, and enables continuous monitoring of cell confluence over several days. The increase in the percentage of cell confluence was used as a surrogate marker of cell proliferation. In a 96-well plate, cells were plated at 1,000 cells per well in triplicates and left to adhere overnight. Cells were then treated with Mito-PEG-ATO analogs, and the cell confluency was recorded over several days in the IncuCyte Live-Cell Analysis System.
(§3) Figure S7. Effects of Mito-PEG-ATO analogs on the proliferation of human lung cancer (A549) cells and human colon cancer (HCT-116) cells. (A) The effects of Mito-PEG5-ATO and ATO on the proliferation of A549 (left) or HCT-116 (right) cells were monitored in the IncuCyte Live-Cell Analysis system. The IncuCyte analyzer provides real-time updates on cell confluence, based on segmentation of high definition-phase contrast images. Representative cell images were shown as a segmentation mask illustrated in brown when control cells reached 90% confluence (vertical solid black line). (B) The IC50 values for A549 (left) or HCT-116 (right) cells were determined at the point at which control cells reached ~90% confluence (vertical solid black line). Relative cell confluence (control is taken as 100%) is plotted against concentration. Dashed lines represent the fitting curves used to determine the IC50 values as indicated. Data shown are the mean±SD.

HCT-116 cells = assay: as above; format: cell-based; conditions: Homo sapiens, HCT-116, read-out: IC50, inhibition of HCT-116 cell proliferation
Method: as §1, §2, §3

[2] = system: mitochondrial respiration (OCR) in intact MiaPaCa-2 cells; assay: Intact cell mitochondrial respiration (basal OCR), Seahorse XF-96; format: cell-based, human
How it was run: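 MiaPaCa-2 cells were treated 24 h with Mito-PEG-ATO analogs, and OCR was read on a Seahorse XF-96; basal respiration was taken in intact cells. For complex I, permeabilized cells received 10 mM pyruvate, 1.5 mM malate and 10 mM malonate; for complex III, 0.5 mM duroquinol, 1 µM rotenone and 10 mM malonate, both in mannitol/sucrose buffer. IC50 values were derived from the OCR data.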

MiaPaCa-2 cells [3] = assay: Cell death by SYTOX Green staining, IncuCyte; conditions: Mito-PEG5-ATO 0.04 µM, AZD-3965 200 µM, 72 h

## Cc1[nH]nc(C(F)(F)F)c1Cc1sc2c(c1C(=O)N1C[C@](C)(O)CO1)c(=O)n(C)c(=O)n2C(C)C [AZD-3965]
U87MG cells
  Inhibition of cell proliferation in combination with Mito-PEG5-ATO: Synergistic inhibition
MiaPaCa-2 cells [1]; AZD-3965 10 µM, Mito-PEG5-ATO 0 µM, 24 h treatment, mean n=4
  intracellular ATP level: 28.98 nmol ATP/mg protein
MiaPaCa-2 cells [1]; AZD-3965 20 µM, Mito-PEG5-ATO 0 µM, 24 h treatment, mean n=4
  intracellular ATP level: 29.42 nmol ATP/mg protein
MiaPaCa-2 cells [1]; AZD-3965 30 µM, Mito-PEG5-ATO 0 µM, 24 h treatment, mean n=4
  intracellular ATP level: 28.90 nmol ATP/mg protein
MiaPaCa-2 cells [1]; AZD-3965 40 µM, Mito-PEG5-ATO 0 µM, 24 h treatment, mean n=4
  intracellular ATP level: 30.34 nmol ATP/mg protein
MiaPaCa-2 cells [1]; AZD-3965 60 µM, Mito-PEG5-ATO 0 µM, 24 h treatment, mean n=4
  intracellular ATP level: 30.77 nmol ATP/mg protein
MiaPaCa-2 cells [1]; AZD-3965 80 µM, Mito-PEG5-ATO 0 µM, 24 h treatment, mean n=4
  intracellular ATP level: 30.40 nmol ATP/mg protein
MiaPaCa-2 cells [1]; AZD-3965 100 µM, Mito-PEG5-ATO 0 µM, 24 h treatment, mean n=4
  intracellular ATP level: 31.41 nmol ATP/mg protein
MiaPaCa-2 cells [1]; AZD-3965 150 µM, Mito-PEG5-ATO 0 µM, 24 h treatment, mean n=4
  intracellular ATP level: 32.36 nmol ATP/mg protein
MiaPaCa-2 cells [1]; AZD-3965 200 µM, Mito-PEG5-ATO 0 µM, 24 h treatment, mean n=4
  intracellular ATP level: 30.51 nmol ATP/mg protein
MiaPaCa-2 cells [1]; AZD-3965 400 µM, Mito-PEG5-ATO 0 µM, 24 h treatment, mean n=4
  intracellular ATP level: 31.60 nmol ATP/mg protein
MiaPaCa-2 cells [1]; AZD-3965 600 µM, Mito-PEG5-ATO 0 µM, 24 h treatment, mean n=4
  intracellular ATP level: 31.63 nmol ATP/mg protein

## O=C1C(OCCOCCOCCOCCOCC[P+](c2ccccc2)(c2ccccc2)c2ccccc2)=C([C@H]2CC[C@H](c3ccc(Cl)cc3)CC2)C(=O)c2ccccc21.[Br-] [Mito-PEG5-ATO, [14-((3-(trans-4-(4-chlorophenyl)cyclohexyl)-1,4-dioxo-1,4-dihydronaphthalen-2-yl)oxy)-3,6,9,12-tetraoxatetradecyl]triphenylphosphonium bromide]
A549 cells
  IC50: 110 nM
HCT-116 cells
  IC50: 140 nM
[2]; 0.003 µM, 24 h treatment, intact MiaPaCa-2 cells, baseline OCR, mean, n=4
  OCR (pmol/min/µg protein): 13.36 pmol/min/µg protein
[2]; 0.01 µM, 24 h treatment, intact MiaPaCa-2 cells, mean, n=4
  OCR (basal, intact cell mitochondrial respiration): 12.51 pmol/min/µg protein
[2]; 0.03 µM, 24 h treatment, intact MiaPaCa-2 cells, mean, n=4
  OCR (basal, intact cell mitochondrial respiration): 9.91 pmol/min/µg protein
[2]; 0.05 µM, 24 h treatment, intact MiaPaCa-2 cells, mean, n=4
  OCR (basal, intact cell mitochondrial respiration): 9.30 pmol/min/µg protein
[2]; 0.075 µM, 24 h treatment, intact MiaPaCa-2 cells, mean, n=4
  OCR (basal, intact cell mitochondrial respiration): 8.05 pmol/min/µg protein
[2]; 0.1 µM, 24 h treatment, intact MiaPaCa-2 cells, mean, n=4
  OCR (basal, intact cell mitochondrial respiration): 5.43 pmol/min/µg protein
[2]; 0.3 µM, 24 h treatment, intact MiaPaCa-2 cells, mean, n=4
  OCR (basal, intact cell mitochondrial respiration): 0.36 pmol/min/µg protein
[2]; 0.5 µM, 24 h treatment, intact MiaPaCa-2 cells, mean, n=4
  OCR (basal, intact cell mitochondrial respiration): 1.83 pmol/min/µg protein
[2]; 1 µM, 24 h treatment, intact MiaPaCa-2 cells, mean, n=4
  OCR (basal, intact cell mitochondrial respiration): 1.40 pmol/min/µg protein
[2]; 3 µM, 24 h treatment, intact MiaPaCa-2 cells, mean, n=4
  OCR (basal, intact cell mitochondrial respiration): 0.84 pmol/min/µg protein
[2]; 10 µM, 24 h treatment, intact MiaPaCa-2 cells, mean, n=4
  OCR (basal, intact cell mitochondrial respiration): 0.55 pmol/min/µg protein
[2]; Homo sapiens, MIA PaCa-2, 24 h, read-out: IC50, inhibition of basal OCR in intact cells
  IC50: 57 nM
MiaPaCa-2 cells [1]; MiaPaCa-2 cells, 24 h, alone and with AZD-3965 or syrosingopine
  Intracellular ATP levels: not due to intracellular ATP depletion
MiaPaCa-2 cells [1]; Mito-PEG5-ATO 0.02 µM, AZD-3965 0 µM, 24 h
  intracellular ATP level: 34.79 nmol ATP/mg protein
MiaPaCa-2 cells [1]; Mito-PEG5-ATO 0.02 µM, syrosingopine 0 µM, 24 h
  intracellular ATP level: 33.08 nmol ATP/mg protein
MiaPaCa-2 cells [1]; Mito-PEG5-ATO 0.04 µM, AZD-3965 0 µM, 24 h
  intracellular ATP level: 29.69 nmol ATP/mg protein
MiaPaCa-2 cells [1]; Mito-PEG5-ATO 0.04 µM, syrosingopine 0 µM, 24 h
  intracellular ATP level: 29.16 nmol ATP/mg protein
MiaPaCa-2 cells [1]; Mito-PEG5-ATO 0.06 µM, AZD-3965 0 µM, 24 h
  intracellular ATP level: 29.11 nmol ATP/mg protein
MiaPaCa-2 cells [1]; Mito-PEG5-ATO 0.06 µM, syrosingopine 0 µM, 24 h
  intracellular ATP level: 28.90 nmol ATP/mg protein
MiaPaCa-2 cells [1]; Mito-PEG5-ATO 0.08 µM, AZD-3965 0 µM, 24 h
  intracellular ATP level: 28.15 nmol ATP/mg protein
MiaPaCa-2 cells [1]; Mito-PEG5-ATO 0.08 µM, syrosingopine 0 µM, 24 h
  intracellular ATP level: 27.83 nmol ATP/mg protein
MiaPaCa-2 cells [1]; Mito-PEG5-ATO 0.1 µM, AZD-3965 0 µM, 24 h
  intracellular ATP level: 27.57 nmol ATP/mg protein
MiaPaCa-2 cells [1]; Mito-PEG5-ATO 0.1 µM, syrosingopine 0 µM, 24 h
  intracellular ATP level: 27.64 nmol ATP/mg protein
MiaPaCa-2 cells [1]; Mito-PEG5-ATO 0.15 µM, AZD-3965 0 µM, 24 h
  intracellular ATP level: 28.14 nmol ATP/mg protein
MiaPaCa-2 cells [1]; Mito-PEG5-ATO 0.15 µM, syrosingopine 0 µM, 24 h
  intracellular ATP level: 28.11 nmol ATP/mg protein
MiaPaCa-2 cells [1]; Mito-PEG5-ATO 0.5 µM, AZD-3965 0 µM, 24 h
  intracellular ATP level: 26.75 nmol ATP/mg protein
MiaPaCa-2 cells [1]; Mito-PEG5-ATO 0.5 µM, syrosingopine 0 µM, 24 h
  intracellular ATP level: 26.12 nmol ATP/mg protein
MiaPaCa-2 cells [3]
  Cell death / cell toxicity (SYTOX Green counts): similarly low SYTOX Green counts
